Measurements taken from publication PMC9505425, “Targeting of the Mitochondrial TET1 Protein by Pyrrolo[3,2-b]pyrrole Chelators” (International Journal of Molecular Sciences, 2022).
Where “and” joins values, the source holds several entries; their conditions need not be identical. Equal values may be shown once.

Experiments:
[1] = MTT cytotoxicity assay, HF-P4; assay type: cell-based, human; conditions: human, HF-P4 normal human dermal fibroblasts, repeats, read-out: Cell viability %
Outline: (§1)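 Cells seeded at 1.0 × 10^5 per well, grown 24 h, then exposed 48 h to compounds at 0.1–20 μM (DMSO ≤1%). MTT added for 2 h, formazan dissolved in DMSO, absorbance read at 570 nm. IC50 calculated relative to untreated cells (100%).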

HF-P4 cells = assay: MTT cytotoxicity assay, HF-P4; assay type: cell-based, human; conditions: 48 h; for Cell viability %: repeats
Outline: as §1

Caov-3 cells = assay: MTT cytotoxicity assay, Caov-3; assay type: cell-based, human
Outline: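 Caov-3 ovarian adenocarcinoma cells, grown for 24 h after plating, were exposed for 48 h to compound at 0.1–20 μM with at most 1% DMSO. Viability was measured by MTT reduction (2 h, A570) relative to untreated cells. IC50 was the concentration inhibiting 50% of cell growth.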

BT-20 cells = assay: MTT cytotoxicity assay, BT-20; assay type: cell-based, human
Outline: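 BT-20 human breast cells seeded 24 h, then treated 48 h with compound at 0.1–20 μM (DMSO below 1%). Viability by MTT (2 h, formazan in DMSO, A570) against untreated cells as 100%; IC50 from four replicates per test, three independent repeats.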

Cc1ccc(-n2c(-c3ccc(C(=O)N/N=C/c4ccccc4O)cc3)cc3c2cc(-c2ccc(C(=O)N/N=C/c4ccccc4O)cc2)n3-c2ccc(C)cc2)cc1 [Compound 6]
viability at 48 h, 0.5 µM ([1]; HF-P4, 500 nM): 103%
viability at 48 h, 0.75 µM ([1]; HF-P4, 750 nM): 97.8%
viability at 48 h, 1 µM ([1]; HF-P4, 1 uM): 84.4%
viability at 48 h, 2.5 µM ([1]; HF-P4, 2.5 uM): 94.5%
viability at 48 h, 5 µM ([1]; HF-P4, 5 uM): 84.3%
viability at 48 h, 7.5 µM ([1]; HF-P4, 7.5 uM): 62.3%
viability at 48 h, 10 µM ([1]; HF-P4, 10 uM): 66.1%
viability at 48 h, 15 µM ([1]; HF-P4, 15 uM): 62.5%
viability at 48 h, 20 µM ([1]; HF-P4, 20 uM): 48%
Cell viability % (HF-P4 cells; HF-P4, 100 nM, 0.1 µM): 114.4851% and 90.24% and 95.4%
Cell viability % (HF-P4 cells; HF-P4, 500 nM, 0.5 µM): 95.79% and 101.8289%
Cell viability % (HF-P4 cells; HF-P4, 750 nM, 0.75 µM): 92.17% and 90.68%
Cell viability % (HF-P4 cells; HF-P4, 1 uM, 1 µM): 84.11% and 85.78%
Cell viability % (HF-P4 cells; HF-P4, 2.5 uM, 2.5 µM): 75.58% and 74.71%
Cell viability % (HF-P4 cells; HF-P4, 5 uM, 5 µM): 73.0472% and 65.6%
Cell viability % (HF-P4 cells; HF-P4, 7.5 uM, 7.5 µM): 61.49% and 69.35%
Cell viability % (HF-P4 cells; HF-P4, 10 uM, 10 µM): 61.41% and 64.7001%
Cell viability % (HF-P4 cells; HF-P4, 15 uM, 15 µM): 54.9% and 58.15%
Cell viability % (HF-P4 cells; HF-P4, 20 uM, 20 µM): 42.62% and 43.54%
IC50 (HF-P4 cells; Homo sapiens, MTT): 16.4 µM
Cell viability % (Caov-3 cells; Caov-3, 100 nM, 48 h, repeats, 0.1 µM): 90.2569% and 126.2705% and 118.7488%
Cell viability % (Caov-3 cells; Caov-3, 500 nM, 48 h, repeats, 0.5 µM): 89.11% and 125.1899% and 99.08%
Cell viability % (Caov-3 cells; Caov-3, 750 nM, 48 h, repeats, 0.75 µM): 65.96% and 78.5%
Cell viability % (Caov-3 cells; Caov-3, 1 uM, 48 h, repeats, 1 µM): 64.72% and 111.7508% and 115.9087%
Cell viability % (Caov-3 cells; Caov-3, 2.5 uM, 48 h, repeats, 2.5 µM): 67.86% and 93.922% and 75.11%
Cell viability % (Caov-3 cells; Caov-3, 5 uM, 48 h, repeats, 5 µM): 62.99% and 65.69% and 100.7653%
Cell viability % (Caov-3 cells; Caov-3, 7.5 uM, 48 h, repeats, 7.5 µM): 58% and 65.63% and 91.09%
Cell viability % (Caov-3 cells; Caov-3, 10 uM, 48 h, repeats, 10 µM): 52.62% and 73.89% and 61.74%
Cell viability % (Caov-3 cells; Caov-3, 15 uM, 48 h, repeats, 15 µM): 42.46% and 49.26%
Cell viability % (Caov-3 cells; Caov-3, 20 uM, 48 h, repeats, 20 µM): 17.34% and 16.88%
viability at 0.75 µM (Caov-3 cells; Homo sapiens, Caov-3, 48 h, Caov-3, 750 nM, repeats, read-out: Cell viability %): 67%
viability at 15 µM (Caov-3 cells; Homo sapiens, Caov-3, 48 h, Caov-3, 15 uM, repeats, read-out: Cell viability %): 36.3%
viability at 20 µM (Caov-3 cells; Homo sapiens, Caov-3, 48 h, Caov-3, 20 uM, repeats, read-out: Cell viability %): 17.4%
IC50 (Caov-3 cells; Homo sapiens, Caov-3, MTT, 48 h): 15.4 µM
Cell viability % (BT-20 cells; BT-20, 100 nM, 48 h, repeats, 0.1 µM): 95.0647% and 99.24%
Cell viability % (BT-20 cells; BT-20, 500 nM, 48 h, repeats, 0.5 µM): 79.35% and 86.49%
Cell viability % (BT-20 cells; BT-20, 750 nM, 48 h, repeats, 0.75 µM): 84.44% and 98.05%
Cell viability % (BT-20 cells; BT-20, 1 uM, 48 h, repeats, 1 µM): 79.3% and 90.76%
Cell viability % (BT-20 cells; BT-20, 2.5 uM, 48 h, repeats, 2.5 µM): 84.17% and 92.79%
Cell viability % (BT-20 cells; BT-20, 5 uM, 48 h, repeats, 5 µM): 70.3% and 79.42%
Cell viability % (BT-20 cells; BT-20, 7.5 uM, 48 h, repeats, 7.5 µM): 49.86% and 58.52%
Cell viability % (BT-20 cells; BT-20, 10 uM, 48 h, repeats, 10 µM): 29.6118% and 40.92%
Cell viability % (BT-20 cells; BT-20, 15 uM, 48 h, repeats, 15 µM): 26.72% and 42.11%
Cell viability % (BT-20 cells; BT-20, 20 uM, 48 h, repeats, 20 µM): 24.04% and 23.03%
viability at 0.1 µM (BT-20 cells; Homo sapiens, BT-20, 48 h, BT-20, 100 nM, repeats, read-out: Cell viability %): 104%
viability at 0.5 µM (BT-20 cells; Homo sapiens, BT-20, 48 h, BT-20, 500 nM, repeats, read-out: Cell viability %): 79.9%
viability at 0.75 µM (BT-20 cells; Homo sapiens, BT-20, 48 h, BT-20, 750 nM, repeats, read-out: Cell viability %): 85.1%
viability at 1 µM (BT-20 cells; Homo sapiens, BT-20, 48 h, BT-20, 1 uM, repeats, read-out: Cell viability %): 91.2%
viability at 2.5 µM (BT-20 cells; Homo sapiens, BT-20, 48 h, BT-20, 2.5 uM, repeats, read-out: Cell viability %): 89.2%
viability at 5 µM (BT-20 cells; Homo sapiens, BT-20, 48 h, BT-20, 5 uM, repeats, read-out: Cell viability %): 85.8%
viability at 7.5 µM (BT-20 cells; Homo sapiens, BT-20, 48 h, BT-20, 7.5 uM, repeats, read-out: Cell viability %): 50.5%
viability at 10 µM (BT-20 cells; Homo sapiens, BT-20, 48 h, BT-20, 10 uM, repeats, read-out: Cell viability %): 36.2%
viability at 15 µM (BT-20 cells; Homo sapiens, BT-20, 48 h, BT-20, 15 uM, repeats, read-out: Cell viability %): 37.8%
viability at 20 µM (BT-20 cells; Homo sapiens, BT-20, 48 h, BT-20, 20 uM, repeats, read-out: Cell viability %): 18.8%
IC50 (BT-20 cells; Homo sapiens, BT-20, MTT, 48 h): 9.84 µM
melting point: 332 to 333 °C
